This assay is described as follows: Compound was tested for inhibition of Angiotensin II receptor in rabbit aorta binding assay.
Take `CCc1nc2c(C)cc(C)nc2n1Cc1ccc(-c2ccoc2-c2nn[nH]n2)cc1`: the IC50 came to 23 nM.

In turn, `CCc1nc2c(C)cc(C)nc2n1Cc1ccc(-c2cscc2-c2nn[nH]n2)cc1` returned an IC50 of 2.4 nM. Against the preceding compound, the IC50 is about 9.6-fold lower.

On to `CCc1nc2c(C)cc(C)nc2n1Cc1ccc(-c2ccccc2-c2nn[nH]n2)s1`, for which the IC50 is 1000 nM.

As to `CCc1nc2c(C)cc(C)nc2n1Cc1ccc(-c2ccsc2-c2nn[nH]n2)cc1`, the IC50 turned out to be 2.3 nM. This IC50 is about 430-fold lower than that of the compound before.

By IC50 is commonly meant the concentration that inhibits the measured activity by half.

Values taken from ChEMBL document CHEMBL1126494, “New potent angiotensin II receptor antagonists containing phenylthiophenes and phenylfurans in place of the biphenyl moiety” (Bioorg Med Chem Lett, 1993).
